One molecule from ChEMBL document CHEMBL3352622, “Folded structure and insertion depth of the frog-skin antimicrobial Peptide esculentin-1b(1-18) in the presence of differently charged membrane-mimicking micelles” (J Nat Prod, 2014) can be followed below.

Calls of active or inactive are those of the source. The rule behind the calls is not given here. Where a SMILES comes first, the peptide text is derived from it.

The subject of this assay is Human alphaherpesvirus 1. Description: Antiviral activity against HSV-1 assessed as reduction in infectivity in African green monkey Vero cells after 2 hrs by virus yield reduction assay. Type of assay: functional, organism-based.

Take `CC[C@H](C)[C@H](NC(=O)CN)C(=O)N[C@@H](Cc1ccccc1)C(=O)N[C@@H](CO)C(=O)N[C@@H](CCCCN)C(=O)N[C@@H](CC(C)C)C(=O)N[C@@H](C)C(=O)NCC(=O)N[C@@H](CCCCN)C(=O)N[C@@H](CCCCN)C(=O)N[C@@H](CC(C)C)C(=O)N[C@@H](CCCCN)C(=O)N[C@@H](CC(N)=O)C(=O)N[C@@H](CC(C)C)C(=O)N[C@@H](CC(C)C)C(=O)N[C@H](C(=O)N[C@@H](CO)C(=O)NCC(N)=O)[C@@H](C)CC` (H-GIFSKLAGKKLKNLLISG-NH2): the result was inactive.
